In the supplement of paper PMC6723410:

Test system: GUMC-403
Test: viability at highest tested concentration (max response) relative to DMSO (% of DMSO control); higher = less cytotoxic
Conditions: library / dose series: MIPE library, 11-point 1:3 dilution, 48 h
Summary of the method: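 The value is viability at the highest tested concentration, expressed relative to vehicle control. Patient-derived GUMC-403 papilloma cells, grown by conditional reprogramming, were seeded at 700/well in 5 μL F + Y medium in 1536-well plates. After an overnight incubation at 37 °C, they received 23 nL of compound by pin tool for 48 h. Readout was CellTiter-Glo luminescence on a ViewLux, normalised to vehicle wells (100%) and empty wells (0%).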

## NC1(c2ccc(-c3nc4ccn5c(=O)[nH]nc5c4cc3-c3ccccc3)cc2)CCC1
Top concentration 46.1 µM
  viability: 90.4

## Cc1c(C)n(Cc2ccc(-c3ccccc3C(=O)O)cc2)c2ccc(C(=O)N[C@@H](C)c3ccc([N+](=O)[O-])cc3)cc12
Top concentration 46.1 µM
  viability: 102

## Cc1cc(C[S+](=O)([O-])c2ccccc2)cc(OCc2ccc(CN3CCC[C@@H]3CO)cc2)c1
Top concentration 46.1 µM
  viability: 116

## CO[C@H]1O[C@@H]2O[C@@]3(C)CC[C@H]4[C@H](C)CC[C@@H]([C@H]1C)[C@@]24OO3
Top concentration 46.1 µM
  viability: 116

## CC(=O)N1CCN(c2ccc(OCc3nn(C)c(C)c3-c3cccc4c(CCCOc5cc(C)c(Cl)c(C)c5)c(C(=O)O)n(Cc5cccnc5)c34)cc2)CC1
Top concentration 46.1 µM
  viability: 137

## Cn1cc(-c2ccc3ncc(Cc4ccc5ncccc5c4)n3n2)cn1
Top concentration 46.1 µM
  viability: 123

## C[C@@H](N)C1CC[C@@H](CC1)C(=O)NC2=CC=NC=C2 (stereo partly drawn)
Top concentration 46.1 µM
  viability: 152

## C[S+](=O)([O-])c1ccc(-c2cnc(N)c(C(=O)Nc3ccccc3)n2)cc1
Top concentration 46.1 µM
  viability: 132

## CCCCc1ccc2[nH]c(NC(=O)OC)nc2c1
Top concentration 46.1 µM
  viability: 112

## CCCC[N+]1(C)[C@@H]2CC(OC(=O)[C@H](CO)c3ccccc3)C[C@H]1[C@@H]1O[C@@H]12 (stereo partly drawn)
Top concentration 46.1 µM
  viability: 114

## CN1C(=O)COc2c(C(=O)NC3CN4CCC3CC4)cc(Cl)cc21 (stereo not drawn)
Top concentration 46.1 µM
  viability: 107

## COc1ccc2c(c1)c(CC(=O)O)c(C)n2C(=O)c1ccc(Cl)cc1
Top concentration 46.1 µM
  viability: 111

## CN1[C@@H]2CC(O)C[C@H]1[C@@H]1O[C@@H]12 (stereo partly drawn)
Top concentration 46.1 µM
  viability: 92.4

## CCOC(=O)c1c(C)n(C)c2ccc(O)cc12
Top concentration 46.1 µM
  viability: 108

## CCCC(C)(COC(N)=O)COC(=O)NC(C)C (stereo not drawn)
Top concentration 46.1 µM
  viability: 117

## N=C(N)Nc1ccc(C(=O)Oc2ccc3cc(C(=N)N)ccc3c2)cc1
Top concentration 46.1 µM
  viability: 86.1

## COc1ccccc1OCC(O)CN1CCN(CC(=O)Nc2c(C)cccc2C)CC1 (stereo not drawn)
Top concentration 46.1 µM
  viability: 130

## NC(=O)c1ccc(-c2nc(-c3ccc4c(c3)OCCO4)c(-c3ccccn3)[nH]2)cc1
Top concentration 46.1 µM
  viability: 131

## Cc1cccc(C)c1OCC(=O)N[C@@H](Cc1ccccc1)[C@@H](O)C[C@H](Cc1ccccc1)NC(=O)[C@H](C(C)C)N1CCCNC1=O
Top concentration 46.1 µM
  viability: 121

## CC(N[C@H]1C[C@@H]1c1ccccc1)c1ccc2c(c1)OCCO2 (stereo partly drawn)
Top concentration 46.1 µM
  viability: 129

## CCn1cc(-c2ccnc3[nH]c(-c4cccc(CN(C)C)c4)cc23)c(-c2ccc(NC(=O)N(C)C)cc2)n1
Top concentration 46.1 µM
  viability: 54.6

## Oc1cc2c(cc1O)C1c3ccc(O)c(O)c3OCC1(O)C2 (stereo not drawn)
Top concentration 46.1 µM
  viability: 129

## CC[C@H](C)C(=O)O[C@H]1C[C@H](O)\C=C2\C=C/[C@H](C)[C@H](CC[C@@H](O)C[C@@H](O)CC(O)=O)[C@@H]12
Top concentration 46.1 µM
  viability: 103

## C[C@@H](NCc1cc2ccccc2[nH]1)c1cccc2ccccc12
Top concentration 46.1 µM
  viability: 108

## Cc1onc(-c2ccccc2)c1C(=O)N[C@@H]1C(=O)N2[C@@H]1SC(C)(C)[C@@H]2C(=O)[O-].[Na+]
Top concentration 46.1 µM
  viability: 109

## CC1(C)Cc2c(-c3ccccc3)c(-c3ccc(Cl)cc3)c(CC(=O)O)n2C1
Top concentration 46.1 µM
  viability: 102

## O=C(CC12CC3CC(CC(C3)C1)C2)Nc1cccc2nc(NCCNCCO)ccc12
Top concentration 46.1 µM
  viability: 69.8

## CCCCN(CCCC)CCC(O)c1cc2c(Cl)cc(Cl)cc2c2cc(C(F)(F)F)ccc12 (stereo not drawn)
Top concentration 46.1 µM
  viability: 107

## c1coc(CNc2ncnc3nc[nH]c23)c1
Top concentration 46.1 µM
  viability: 108

## CC(C)(C)c1[nH]cnc1/C=c1\[nH]c(=O)/c(=C/c2ccccc2)[nH]c1=O
Top concentration 92.2 µM
  viability: 95.3

## CCC1(c2ccc(N)cc2)CCC(=O)NC1=O (stereo not drawn)
Top concentration 46.1 µM
  viability: 93.1

## CCCCCNC(=O)N1CCC(CN(Cc2ccc(Cl)cc2)Cc2ccc([N+](=O)[O-])s2)C1 (stereo not drawn)
Top concentration 46.1 µM
  viability: 83.4

## C[C@@H](NC1=CC=CC=C1C(O)=O)C/2=C/C(=C\N3C(=O)/C=C(\N=C23)N4CCOCC4)C
Top concentration 92.2 µM
  viability: 34.9

## C[C@]12CC[C@H]3[C@@H](CC[C@@]45O[C@@H]4C(O)=C(C#N)C[C@]35C)[C@@H]1CC[C@@H]2O
Top concentration 46.1 µM
  viability: 124

## OC[C@H]1O[C@H](C[C@@H]1O)[N]2C=NC3=C2\N=C/NC[C@H]3O
Top concentration 46.1 µM
  viability: 83.1

## Cc1cccc(C#Cc2ccccc2)n1
Top concentration 46.1 µM
  viability: 101

## C[N]1C=C(C=N1)C2=CC=C3N=CC\4=C(N(C(=O)\C=C4)C5=CC6=C(CCN6C(=O)C=C)C=C5)C3=C2
Top concentration 46.1 µM
  viability: 104

## CC(C)[C@H](O)C(=O)N[C@@H](C)C(=O)N[C@@H]1C(=O)N(C)CCc2ccccc21
Top concentration 46.1 µM
  viability: 84.6

## Cc1onc(-c2ccccc2Cl)c1C(=O)N[C@@H]1C(=O)N2[C@@H]1SC(C)(C)[C@@H]2C(=O)[O-]
Top concentration 46.1 µM
  viability: 111

## Cl.O[C@@H](CNC[C@H](O)[C@H]1CCc2cc(F)ccc2O1)[C@@H]1CCc2cc(F)ccc2O1
Top concentration 46.1 µM
  viability: 95.8

## C/C=C(\C)C(=O)N[C@@H](c1ccccc1)[C@@H](O)C(=O)O[C@H]1C[C@@]2(O)[C@@H](OC(=O)c3ccccc3)[C@@H]3[C@]4(OC(C)=O)CO[C@@H]4C[C@H](O)[C@@]3(C)C(=O)[C@H](OC(C)=O)C(=C1C)C2(C)C
Top concentration 46.1 µM
  viability: 111

## Cc1ccnc(N[S+](=O)([O-])c2ccc(NC(=O)Nc3ccc([S+](=O)([O-])Nc4nccc(C)n4)cc3)cc2)n1
Top concentration 46.1 µM
  viability: 121

## CCN(CC)CCCCNc1nc2cc(Cl)c(Cl)cc2nc1-c1ccc(-c2cccs2)s1
Top concentration 46.1 µM
  viability: 92.1

## COc1cc2c(Nc3ccc(NC(=O)c4ccccc4)cc3)ncnc2cc1OCCCN1CCOCC1
Top concentration 46.1 µM
  viability: 117

## Cc1cc(/C=c2/sc3nc4ccccc4n3c2=O)c(C)n1-c1ccccc1
Top concentration 46.1 µM
  viability: 106

## CCCCCCCCCCCCCCCCCCOP(=O)([O-])OC1CC[N+](C)(C)CC1
Top concentration 23 µM
  viability: 127

## CC(C)[C@@H](N(CCCN)C(=O)C1=CC=C(C)C=C1)C/2=N/C3=CC(=CC=C3C(=O)N2CC4=CC=CC=C4)Cl
Top concentration 46.1 µM
  viability: 121

## CC1=CC=CC=C1N2\C(=N/C3=C(C(=CC=C3)C)C2=O)C[N]4C=NC5=C4N=CN=C5N
Top concentration 46.1 µM
  viability: 24.1

## O=C(Nc1c(Cl)cncc1Cl)c1ccc(OC(F)F)c(OCC2CC2)c1
Top concentration 46.1 µM
  viability: 125

## CC1Cc2ccccc2N1NC(=O)c1ccc(Cl)c([S+](N)(=O)[O-])c1 (stereo not drawn)
Top concentration 46.1 µM
  viability: 105

## CC1(C)S[C@H]2[C@H](NC(=O)[C@@H](N)C3=CC=C(O)C=C3)C(=O)[N@]2[C@H]1C(O)=O
Top concentration 46.1 µM
  viability: 124

## CCOC(=O)Nc1ccc(NCc2ccc(F)cc2)nc1N
Top concentration 46.1 µM
  viability: 102

## O=C(c1ccc(OCCN2CCCCC2)cc1)c1c(-c2ccc(O)cc2)sc2cc(O)ccc12
Top concentration 46.1 µM
  viability: 94.4

## C[C@]1(c2nc3c(C(N)=O)cccc3[nH]2)CCCN1
Top concentration 46.1 µM
  viability: 72.9

## COCCOC(=O)C/1=C(C)/NC/2=C(C1C3=CC=CC(=C3)O)/C(=O)CC(C2)C4=C(OC)C=CC=C4 (stereo not drawn)
Top concentration 46.1 µM
  viability: 79.8

## CC(C)CC(N(C)C)C1(c2ccc(Cl)cc2)CCC1 (stereo not drawn)
Top concentration 46.1 µM
  viability: 122

## O=C(CCc1ccc(O)cc1)c1c(O)cc(O)cc1O
Top concentration 46.1 µM
  viability: 107

## CC(=O)Oc1ccccc1C(=O)Nc1ncc([N+](=O)[O-])s1
Top concentration 92.2 µM
  viability: 82.2

## CC1(C)O[C@@H]2C[C@H]3[C@@H]4CCC5=CC(=O)C=C[C@]5(C)[C@@]4(F)[C@@H](O)C[C@]3(C)[C@]2(C(=O)CO)O1
Top concentration 46.1 µM
  viability: 117

## CC1=C(C)C2=C(S1)[N]3C(=NN=C3[C@H](CC(=O)OC(C)(C)C)/N=C2/C4=CC=C(Cl)C=C4)C
Top concentration 46.1 µM
  viability: 65

## CC1=C(CC/C(C)=C/CCC2=CCC(C3=CC(=O)OC3O)OC2O)C(C)(C)CCC1 (stereo not drawn)
Top concentration 46.1 µM
  viability: 99.7

## C/C=C1\C2C=C(C)CC1(N)c1ccc(=O)[nH]c1C2 (stereo not drawn)
Top concentration 46.1 µM
  viability: 118

## CC[C@]12\C=C/CN3CC[C@]4([C@@H](N(C)C5=CC(=C(C=C45)[C@]6(C[C@H]7C[C@H](CN(C7)CC8=C6[NH]C9=C8C=CC=C9)C(C)(F)F)C(=O)OC)OC)[C@](O)([C@@H]1OC(C)=O)C(=O)OC)[C@H]23
Top concentration 46.1 µM
  viability: 85

## CN(C)C(=N)NC(=N)N
Top concentration 46.1 µM
  viability: 122

## O=C(NOC[C@H](O)CO)c1ccc(F)c(F)c1Nc1ccc(I)cc1F
Top concentration 46.1 µM
  viability: 101

## OC[C@H]1O[C@H](C[C@@H]1O)N2\C=C(F)/C(=O)NC2=O
Top concentration 46.1 µM
  viability: 65.7

## C=C[C@H]1CN2CCC1C[C@H]2[C@H](O)c1ccnc2ccccc12 (stereo partly drawn)
Top concentration 46.1 µM
  viability: 101

## O=C([O-])Cc1ccccc1Nc1c(Cl)cccc1Cl
Top concentration 46.1 µM
  viability: 104

## C[C@]12CC[C@H]3[C@@H](C\C=C/4C[C@@H](O)CC[C@]34C)[C@@H]1CCC2=O
Top concentration 46.1 µM
  viability: 101

## CCN1CCCC1CNC(=O)c1cc([S+](N)(=O)[O-])ccc1OC (stereo not drawn)
Top concentration 46.1 µM
  viability: 134

## CCNC(=O)Nc1ccc2ncc(Nc3ccc(C)cc3)nc2n1
Top concentration 46.1 µM
  viability: 108

## Nc1nc(N)nc(-c2cc(Cl)ccc2Cl)n1.O=C(O)/C=C\C(=O)O
Top concentration 46.1 µM
  viability: 112

## CN(C)CC(C)(C)CNc1nn2c(-c3ccccc3)nnc2cc1C1CCC1
Top concentration 46.1 µM
  viability: 108

## O=[S+]([O-])(CC1CS1)c1ccc(Oc2ccccc2)cc1 (stereo not drawn)
Top concentration 46.1 µM
  viability: 122

## O=C(CCCCCCC(=O)Nc1cccnc1)NO
Top concentration 46.1 µM
  viability: 111

## CN1CCN(CCOc2cc(OC3CCOCC3)c3c(Nc4c(Cl)ccc5c4OCO5)ncnc3c2)CC1
Top concentration 46.1 µM
  viability: 75.9

## COc1cccc2c1[C@]13CCN(CC4CC4)[C@H](C2)[C@]1(OC)CCC(=O)C3
Top concentration 46.1 µM
  viability: 107

## N#CC(c1ccnc(NCCc2cccnc2)n1)c1nc2ccccc2s1 (stereo not drawn)
Top concentration 46.1 µM
  viability: 108

## CN(C)C1=C(Br)C=C(C=C1)C\2NC3=C(\C4=C2C(=O)CC(C)(C)C4)C5=CC=CC=C5C=C3 (stereo not drawn)
Top concentration 46.1 µM
  viability: 99.8

## CCN(CC)CCCC(C)Nc1ccnc2cc(Cl)ccc12 (stereo not drawn)
Top concentration 46.1 µM
  viability: 103

## CCC(CCCC)COC(=O)C(\C#N)=C(\c1ccccc1)c2ccccc2 (stereo not drawn)
Top concentration 46.1 µM
  viability: 113

## C=CC(=O)Nc1cc(NC(=O)c2ccc(C)c(NC(=O)c3ccno3)c2)cc(C(F)(F)F)c1
Top concentration 46.1 µM
  viability: 106

## CC(=O)[C@H]1CC[C@H]2[C@@H]3CCC4=CC(=O)CC[C@]4(C)[C@H]3CC[C@]12C
Top concentration 46.1 µM
  viability: 118
